Test system: mice with chronic constriction injury
Assay: Chronic constriction injury (CCI) model, paw withdrawal thresholds to von Frey filaments
Assay type: in vivo, mouse
Settings: CCI, systemic treatment
Description: In deeply anaesthetized mice using isoflurane delivered in 100% 02 (Univentor 410 Anaesthesia unit; Univentor, Malta), four loose silk (5/0; Catgut GmbH Markneukirchen) ligatures were placed around the sciatic nerve at the level of the right mid-thigh as described previously (Wetzel et al., 2007).
Mice were allowed to habituate to the testing apparatus (acrylic chambers 10×10 cm in size, suspended above a wired mesh grid) one hour prior to behavioral testing. Only once the subject was at rest and not moving, calibrated von-Frey hair monofilaments (Aesthesio® set of 20 monofilaments, Ugo Basil) were applied to the plantar surface of the hind paw in order to deliver target forces from 0.008 grams to 4 grams increasing in an approximately logarithmic scale. A single stimulus indicated by a slight bending of the filament lasted for two seconds unless the mouse withdrew its paw. In order to measure mechanosensitivity the up-and-down method described by Chaplan^13 was adapted as follows: Testing began with a filament delivering a target force of 0.4 g, but filaments were applied three times. A positive response was noted if the subject withdrew the paw to all three filament applications, so that the successively smaller filament was presented next. […] Paw withdrawal thresholds were calculated as median of 23 to 30 determined turning points of the particular force stimuli applied to the subject.
Drug injections of OB-1 or DMSO alone were dissolved in Ringer's solution (in mM: 135 NaCl, 5 KCl, 5 HEPES, 1.8 CaCl2), 1 MgCl2) to make the OB-1 and vehicle solution. Injections were made 3 hours prior to behavioral testing, approximately 20 μl solution, 250 pmol per paw, was injected into the palm with a Hamilton syringe, gauge 33. During the injection procedure, the mouse was anaesthetized with isoflurane (1.5 to 2.5% in 02). The injection procedure lasted around 3 minutes after which the mouse was moved to the home cage for recovery before behavioral testing.
We next interrogated whether local application of OB-1 can ameliorate tactile-evoked pain behavior in neuropathic models. […] We decided to test this idea more directly by testing the effects of local OB-1 on the mechanical sensitivity of Stoml3^−/− mice with CCI. […] Off-target effects are an issue for any biologically active small molecule. We therefore tested the effects of 20 μM OB-1 in a commercially available in vitro pharmacology panel (www.cerep.fr) consisting of 79 receptors and ion channels.

For NCC1(CC(=O)O)CCCCC1 [gabapentin, reference compound], the tactile allodynia was “reversal of tactile allodynia”.
